Assay results: US20110003013A1, “METHOD OF INCREASING METABOLISM” (GARVAN INSTITUTE OF MEDICAL RESEARCH, priority 2008, published 2011)
“Also recorded” adds a separate entry of the source.

Assays:
[1] = Indirect calorimetry (Oxymax): VO2, VCO2, RER, heat, activity; assay type: in vivo, C57Bl/6 mice
Method: (§1) Each mouse was weighed weekly and the blood glucose levels assessed at random times every second week alternating with rectal temperatures. Intraperitoneal Glucose Tolerance Testing (IPGTT) was carried out at week 5 and 21 using 2g glucose/kg dose. Insulin Tolerance Testing (ITT) was carried at week 2 (0.33 U/kg) and week 6 (0.50 U/kg). Glucose Stimulated Insulin Secretion (GSIS)(3g glucose/kg) was studied out at week 7. Food intake studies were carried out at weeks 0, 4, 8 and 25. Indirect calorimetry was performed using the Oxymax System (Columbus Instruments, Columbus, Ohio) at weeks 0, 4, 8 and 25. Measurements were taken over a 12-hour light cycle and a 12-hour dark cycle.
Mice were placed with ad libitum food and water in separate chambers in an 8 chamber, indirect open circuit calorimeter (Columbus Oxymax Respirometer 0246-002M, Columbus Instruments Ohio USA) for 36-48 hours. This machine obtains periodic measurements of the percentage of oxygen and carbon dioxide in the test chamber. Changes in gas concentrations are used to calculate the rate of oxygen consumption (VO2) and carbon dioxide production (VCO2) per mouse, with a readout every 27 minutes (Oxymax Software 0246-102M). The software calculates heat production per mouse and the respiratory exchange ratio (RER) (VCO2/VO2) using VO2 and VCO2. Activity levels were simultaneously measured in 2 dimensions (Opto-M3 activity meter) using […] wavelength light beams. Ambulatory movements were registered when more than one light beams in the same axis were crossed by an animal in a given period of time. The last 24 hours of data were analysed to allow for an acclimatisation period.
The hourly mean VO2 and VCO2 (mL/hr/kg total body weight) were calculated by averaging the VO2 and VCO2 readings produced by the Oxymax software for each hour. VO2 and VCO2 per unit of lean body mass (VXX2LM) was calculated from the Oxymax results (VXX2) using the following equation: […]
The hourly mean RER and the total, light and dark RER were calculated in a similar manner to VO2 and VCO2. No adjustment for body weight was required.
Heat (total energy expenditure, kcal/hr/mouse) was calculated by the Oxymax software using the formula:
Heat=CV (calorific value)*VO2 where CV=3.815+(1.232*RER)
The hourly mean heat production and the total, light and dark heat production were calculated in a similar manner to VO2 and VCO2. Heat production per unit of lean body mass was calculated by dividing the Oxymax reading by unit of lean body mass.
To quantify activity levels, the total number of ambulatory movements in the x axis and the y axis was calculated per unit time for each mouse.
Oxymax data were analysed using t-tests.

[2] = Body weight of mice on high fat diet with DFS; assay type: in vivo, C57Bl/6 mice; conditions: Studies 1-4, vs control mice, from about 3 to about 10 weeks after commencement
Method: Four studies were performed using C57Bl/6 mice. Study 1 included 30 control mice and 30 mice administered DFS. Study 2 included 30 control mice and 30 mice administered DFS. Study 3 included 8 control mice and 8 mice administered DFS. Study 4 included 18 control mice and 18 mice administered DFS. Mice in Study 3 differed to those in studies 1 and 2 in so far as they were sourced from different colonies.
Mice were randomly separated equally into a treatment group receiving Deferasirox (DFS) or a control group (CON). DFS was powdered using a mortar and pestle and mixed in thoroughly with the dry mineral mix prior to the addition of melted lard and then left to harden overnight in the refrigerator to form high-fat diet (HFD). From 6 weeks of age for up to 25 weeks, the mice were then fed ad libitum this HFD, from which 45% of their calories were derived from animal lard.
as §1, with “Indirect calorimetry was performed using the Oxymax System (Columbus Instruments, Columbus, Ohio) at weeks 0, 4, 8 and 25. Measurements were taken over a 12-hour light cycle and a 12-hour dark cycle.” left out

[3] = Weight of visceral, white and brown adipose tissue; assay type: in vivo, C57Bl/6 mice; conditions: high fat diet, vs control mice
Food intake studies = assay type: in vivo, C57Bl/6 mice
Method: as §1

[4] = Fasting plasma insulin and glucose stimulated insulin secretion (GSIS); assay type: in vivo, C57Bl/6 mice
Method: as §1
(§2) Plasma insulin was measured with ELISA kits. Liver transaminases and plasma lipids were performed by Sydpath Pathology, St Vincent's Hospital. Liver triglycerides were extracted using methanol/chloroform 2:1 and detected using colorimetric assay.

[5] = Blood glucose levels assessed at random times; assay type: in vivo, C57Bl/6 mice; conditions: over 9 weeks of high fat diet, vs CON mice
Method: as §1

[6] = Intraperitoneal glucose tolerance test; assay type: in vivo, C57Bl/6 mice; conditions: 2 g glucose/kg i.p., vs CON mice
Method: as §1
Mice were fasted overnight for 16 hours. Glucose was administered at a dose of 2g/kg by intraperitoneal injection in the form of a 20% dextrose solution. Blood glucose was measured via glucometer (Accucheck Advantage II, Roche, Australia) prior to, and at 15, 30, 60, 90 and 120 minutes after the dextrose injection.
Mice were fasted for 6 hours before intraperitoneal administration of glucose (2 g/kg dose) in sterile water. Blood glucose was measured by glucometer at the times indicated.

Insulin tolerance test = assay type: in vivo, C57Bl/6 mice
Method: as §1
Mice were fasted overnight for 16 hours. Insulin was injected at 0.5 units per kg (diluted in 1× PBS with 1% bovine serum albumin) by intraperitoneal injection. Blood glucose was measured via glucometer prior to, and at 10, 20, 30, 45 and 60 minutes after the insulin injection.

[7] = HFD-induced hepatic lipid accumulation (steatosis); assay type: in vivo, C57Bl/6 mice; conditions: 10 weeks on HFD, vs CON mice, data not shown
Method: (§3) Mice livers were fixed in 10% buffered formaldehyde, embedded in paraffin and slides were prepared using standard haematoxylin and eosin as well as Perl staining to visualize hepatic iron.
as §2

Iron levels in the liver = assay type: in vivo, C57Bl/6 mice; conditions: vs CON mice, data not shown
Method: as §3

HIF-1α = assay: Western blot of liver lysates for HIF-1α; assay type: in vivo, C57Bl/6 mice; conditions: vs control
Method: Fresh tissues were removed rapidly from culled animals and kept frozen in the −80° C. freezer. They were then homogenized in lysis buffer and sonicated in cold RIPA buffer ([…] pH 7.4, 1% NP40, 0.25% sodium deoxycholate, […], 1 mM EDTA, 1 mM PMSF and protease inhibitor cocktail). 121 μg of protein sample was resolved on an 8% SDS PAGE gel. Proteins were transferred onto nitrocellulose membrane. Primary antibodies (HIF-1α, and (β-tubulin) were prepared in milk buffers at concentrations of 1:500 and 1:2000 respectively and the membrane was incubated overnight at 4° C. Membranes were then rinsed with Phosphate Buffered Solution containing Tween and HRP-conjugated secondary antibodies (at 1:1000 dilution). Proteins were visualised using enhanced chemiluminescence.

[8] = test system: AKT2, IRS1, IRS2, PFK, GLUT2, HSL, LPL; assay: Liver gene expression by quantitative real-time PCR; assay type: in vivo, C57Bl/6 mice; conditions: vs control
From the text: Tissues were homogenized in extraction buffer and RNA was isolated according to the RNeasy Kit protocol. […] The level of mRNA for each gene was normalized to the level of TATA box binding-protein (TBP) mRNA in each sample.

[9] = Blood and liver safety parameters (haemoglobin, white blood counts, transaminases, serum iron); assay type: in vivo, C57Bl/6 mice; conditions: vs control mice
Method: as §2

[10] = Body weight of ob/ob mice on chow diet with DFS; assay type: in vivo; conditions: vs control ob/ob mice
Method: Studies were also performed using ob/ob mice, in particular, 5 ob/ob controls and 5ob/ob mice administered DFS. Wild type C57bl/6 mice were also used as controls, 4 untreated and 4 administered DFS.

## CC(=O)N(O)CCCCCNC(=O)CCC(=O)N(O)CCCCCNC(=O)CCC(=O)N(O)CCCCCN [DFO]
[1]; summary statement of the inventors' work
  metabolism in a subject: capable of increasing metabolism

## O=C(O)c1ccc(-n2nc(-c3ccccc3O)nc2-c2ccccc2O)cc1 [DFS, 4-[3,5-Bis (2-hydroxyphenyl)-1H-1,2,4-triazol-1-yl]-benzoic acid]
[2]
  body weight / weight gain: significantly reduced body weights; also recorded: decreases weight gain
[1]; after 8 weeks of high fat diet and DFS, vs control mice
  oxygen consumption (VO2): significantly increased; also recorded: consume significantly more oxygen than control mice
[1]; after 25 weeks of high fat diet and DFS, vs control mice
  oxygen consumption (VO2): significantly increased; also recorded: consume significantly more oxygen than control mice
[1]; high fat diet, vs control mice
  metabolic rate: significantly higher metabolic rate
  respiratory exchange ratio (RER) (VCO2/VO2): significantly reduced
[1]; over a day, high fat diet, vs control mice
  energy expenditure (EE) or heat production: significantly higher energy expenditure
[1]; week 0 (initial week of high fat diet and DFS), vs control mice
  oxygen consumption (VO2) / baseline metabolic rate: similar; also recorded: no significant difference
[1]; week 8 of continuous DFS treatment, vs control mice
  CO2 production: significantly increased
[1]; week 25 of continuous DFS treatment, vs control mice
  CO2 production: significantly increased
[3]
  weight of brown adipose tissue (BAT): unchanged
  weight of visceral adipose tissue (VAT): reduced; also recorded: significantly lighter
  weight of white adipose tissue (WAT): reduced; also recorded: significantly lighter
Food intake studies; by 25 weeks, HFD, vs CON mice
  food consumed adjusted per body weight: eaten more HFD adjusted per body weight; also recorded: consumed significantly more food per gram of body weight
Food intake studies; week 0, vs CON animals
  feed intake: did not differ
[4]; high fat diet, p<0.005
  mean fasting insulin levels vs control: significantly lower
[4]; high fat diet, mean + SEM, p=0.005 vs control
  fasting insulin levels: 2837+874 pmol/L
[4]; week 7, 3 g glucose/kg, vs control
  glucose stimulated insulin secretion (GSIS) profile: better preservation
[5]
  blood glucose levels at random times: generally had lower blood glucose levels; also recorded: significantly lower blood glucose levels
[6]; 21 weeks of high fat diet
  glucose tolerance: continued beyond at least week 21; also recorded: significantly improved insulin tolerance
[6]; five weeks of high fat diet
  glucose tolerance: significantly better glucose tolerance; also recorded: significantly improved glucose tolerance
Insulin tolerance test; following five weeks of high fat diet, vs CON mice
  insulin tolerance (ITT): performed significantly better; also recorded: significantly improved insulin tolerance
Insulin tolerance test; vs 38% of controls, p<0.001, indicating improved insulin sensitivity, data not shown
  proportion of animals with glucoses <2 mmol/L: About 80%
[7]
  macroscopic hepatic steatosis: relatively protected
Iron levels in the liver
  liver iron levels: lower iron levels
HIF-1α
  level of HIF-1α relative to β-tubulin: increased HIF-1α; also recorded: higher levels of HIF-1α
[8]; normalized to TBP mRNA
  AKT2 gene expression: significantly increased
  IRS1 gene expression: significantly increased; also recorded: increased expression
  IRS2 gene expression: significantly increased
  PFK gene expression: significantly increased
[8]
  GLUT2 expression: trend for improved
  hormone sensitive lipase (HSL) gene expression: significantly increased; also recorded: increased expression
  lipoprotein lipase (LPL) gene expression: significantly increased; also recorded: increased expression
[9]
  haemoglobin levels / anaemia: does not result in anaemia; also recorded: No significant difference
  serum alanine transaminase levels: No significant difference
  serum aspartate aminotransferase levels: No significant difference
  serum iron levels: No significant difference
  significantly reduced liver function: does not result in
  white blood counts: No significant difference
[10]; ob/ob mice on chow diet, p<0.0005
  weight gained over an eight week period: significantly lower; also recorded: gained significantly less weight
[10]; ob/ob mice on normal chow diet
  body weight: reduced body weight (or reduced body weight increase)
